In publication PMC8286840, “Identifying SARS-CoV-2 antiviral compounds by screening for small molecule inhibitors of Nsp3 papain-like protease” (Biochemical Journal, 2021):
Counter-ions that a name gives are not always drawn. Like-named read-outs stand apart in the source and are kept apart here. Where a SMILES comes first, the peptide text is derived from it. [ ]: non-standard residue; d: D form. Nle = CCCC[C@H](N)C(=O)O

What was measured:
[1] = biological target: T1, SARS-CoV-2 PLpro (nsp3 1564–1878) (Severe acute respiratory syndrome coronavirus 2, UniProt P0DTD1); assay: biochemical; parameters: FRET-quenched peptide (Pro3) cleavage by PLpro, 10 min pre-incubation, slope over 20 min, normalised to no-compound control; conditions: low concentration screen, read-out: % of control remaining
[2] = biological target: T1, SARS-CoV-2 PLpro (nsp3 1564–1878); assay: biochemical; parameters: FRET-quenched peptide (Pro3) cleavage by PLpro, 10 min pre-incubation, slope over 20 min, normalised to no-compound control; conditions: high concentration screen, read-out: % of control remaining

Compound `CCCOc1cc2c(cc1\C(C)=C/C=C/C(C)=C/C(=O)O)C(C)(C)CCC2(C)C` [(2E,4E,6Z)-3-methyl-7-(5,5,8,8-tetramethyl-3-propoxy-5,6,7,8-tetrahydro-2-naphthalenyl)-2,4,6-octatrienoic acid] has a remaining activity at 1.25 µM ([1]; Well no.=6004) of 92.7% and a remaining activity at 3.75 µM ([2]; Well no.=6004) of 93%.

In the case of `CCN(C)C(=O)Oc1cccc([C@H](C)N(C)C)c1` [(2R,3R)-2,3-dihydroxybutanedioic acid compound with 3-[(1S)-1-(dimethylamino)ethyl]phenyl ethyl(methyl)carbamate (1:1)], the remaining activity at 1.25 µM ([1]; Well no.=5811) was 96.9% and the remaining activity at 3.75 µM ([2]; Well no.=5811) was 98%.

With `O=C1c2c(O)cc(O)cc2O[C@H](c2cc(O)c(O)c(O)c2)[C@H]1O` [(2R,3R)-3,5,7-trihydroxy-2-(3,4,5-trihydroxyphenyl)-2,3-dihydro-4H-chromen-4-one] the remaining activity at 1.25 µM ([1]; Well no.=5388) was 106% and the remaining activity at 3.75 µM ([2]; Well no.=5388) was 111%.

`Nc1ncnc2c1nc(N)n2[C@@H]1O[C@H](CO)[C@@H](O)[C@H]1O` [(2R,3R,4S,5R)-2-(6,8-diamino-9H-purin-9-yl)-5-(hydroxymethyl)tetrahydrofuran-3,4-diol] showed a remaining activity at 1.25 µM ([1]; Well no.=5532) of 106% and a remaining activity at 3.75 µM ([2]; Well no.=5532) of 105%.

`CC1CNc2c(cccc2S(=O)(=O)N[C@@H](CCCNC(=N)N)C(=O)N2CC[C@@H](C)C[C@@H]2C(=O)O)C1` (stereo partly drawn) [(2R,4R)-1-((2S)-5-{[amino(imino)methyl]amino}-2-{[(3-methyl-1,2,3,4-tetrahydro-8-quinolinyl)sulfonyl]amino}pentanoyl)-4-methyl-2-piperidinecarboxylic acid hydrate] was tested, and the remaining activity at 1.25 µM ([1]; Well no.=5613) was 96% and the remaining activity at 3.75 µM ([2]; Well no.=5613) was 96.5%.

`CCCC[C@@H](C=O)NC(=O)[C@H](CC(C)C)NC(=O)[C@H](CC(C)C)NC(C)=O` [(2S)-2-(acetylamino)-N-[(1S)-1-({[(1S)-1-formylpentyl]amino}carbonyl)-3-methylbutyl]-4-methylpentanamide] (Ac-Leu-Leu-[Nle]-aldehyde) showed a remaining activity at 1.25 µM ([1]; Well no.=5774) of 95.7% and a remaining activity at 3.75 µM ([2]; Well no.=5774) of 95.3%.

Work on `CC(C)C[C@H](NC(=O)[C@@H](O)[C@H](N)Cc1ccc([N+](=O)[O-])cc1)C(=O)O` [(2S,3R)-3-Amino-2-hydroxy-4-(4-nitrophenyl)butanoyl-L-leucine hydrochloride] yielded a remaining activity at 1.25 µM ([1]; Well no.=67) of 106% and a remaining activity at 3.75 µM ([2]; Well no.=67) of 104%.

`CCOC(=O)[C@H](CCc1ccccc1)N[C@@H](C)C(=O)N1CCC[C@H]1C(=O)O` [(2Z)-2-butenedioic acid compound with (2S)-1-((2S)-2-{[(1S)-1-(ethoxycarbonyl)-3-phenylpropyl]amino}propanoyl)-2-pyrrolidinecarboxylic acid (1:1)] gave a remaining activity at 1.25 µM ([1]; Well no.=5659) of 102% and a remaining activity at 3.75 µM ([2]; Well no.=5659) of 101%.

With `C/C(Nc1ccccc1)=C1\C(=O)NC(Cc2ccccc2)C1=O` (centres unmarked) [(3E)-3-(1-anilinoethylidene)-5-benzyl-2,4-pyrrolidinedione] the remaining activity at 1.25 µM ([1]; Well no.=5686) was 96.9% and the remaining activity at 3.75 µM ([2]; Well no.=5686) was 97.8%.

With `COc1cc2c(cc1OC)[C@H]1CC(=O)[C@H](CC(C)C)CN1CC2` [(3R,11bR)-3-isobutyl-9,10-dimethoxy-1,3,4,6,7,11b-hexahydro-2H-pyrido[2,1-a]isoquinolin-2-one] the remaining activity at 1.25 µM ([1]; Well no.=5582) was 93.7% and the remaining activity at 3.75 µM ([2]; Well no.=5582) was 98.6%.

`C=C[C@]1(C)C[C@@H](OC(=O)CO)[C@]2(C)[C@H](C)CC[C@]3(CCC(=O)[C@H]32)[C@@H](C)[C@@H]1O` [(3aR,4R,5R,7S,8S,9R,9aS,12R)-8-hydroxy-4,7,9,12-tetramethyl-3-oxo-7-vinyldecahydro-4,9a-propanocyclopenta[8]annulen-5-yl 2-hydroxyacetate] was tested, and the remaining activity at 1.25 µM ([1]; Well no.=5764) was 97.1% and the remaining activity at 3.75 µM ([2]; Well no.=5764) was 97.7%.

Compound `CCCCCCCCCCCC1N[C@H](C(=O)O)CS1` (stereo partly drawn) [(4R) - 2-Undecyl-4-thiazolidinecarboxylic acid] has a remaining activity at 1.25 µM ([1]; Well no.=5484) of 104% and a remaining activity at 3.75 µM ([2]; Well no.=5484) of 106%.

`Cc1ccc(CN2C(=O)S/C(=C\c3ccc(Cl)cc3)C2=O)cc1` [(5Z)-5-(4-chlorobenzylidene)-3-(4-methylbenzyl)-1,3-thiazolidine-2,4-dione] was tested, and the remaining activity at 1.25 µM ([1]; Well no.=6027) was 94.6% and the remaining activity at 3.75 µM ([2]; Well no.=6027) was 94.7%.

For `CC(O)C(O)C1CNc2nc(N)[nH]c(=O)c2N1` [(6R)-5,6,7,8-Tetrahydro-L-biopterin hydrochloride], the remaining activity at 1.25 µM ([1]; Well no.=1383) was 101% and the remaining activity at 3.75 µM ([2]; Well no.=1383) was 102%.

Compound `C=C1C=C(C)n2nc(CC3C(=O)C[C@](CCc4cc(CC)nc(CC)c4)(C4CCCC4)OC3=O)nc2N1` (stereo partly drawn) [(6R)-6-cyclopentyl-6-(2-(2,6-diethylpyridin-4-yl)ethyl)-3-((7-methyl-5-methylene-4,5-dihydro-[1,2,4]triazolo[1,5-a]pyrimidin-2-yl)methyl)dihydro-2H-pyran-2,4(3H)-dione] has a remaining activity at 1.25 µM ([1]; Well no.=5607) of 102% and a remaining activity at 3.75 µM ([2]; Well no.=5607) of 105%.

`CCCCCC/C=C/C=C\CCCCCCCC(=O)O` [(9Z,11E)-Octadecadienoic acid] showed a remaining activity at 1.25 µM ([1]; Well no.=4354) of 106% and a remaining activity at 3.75 µM ([2]; Well no.=4354) of 106%.

`CC(C)=CCC[C@](C)(O)[C@H]1CC[C@]2(C)[C@@H]1[C@H](O)C[C@@H]1[C@@]3(C)CC[C@H](O)C(C)(C)[C@@H]3CC[C@]12C` [(20S)-Protopanaxadiol] was tested, and the remaining activity at 1.25 µM ([1]; Well no.=6300) was 106% and the remaining activity at 3.75 µM ([2]; Well no.=6300) was 99.5%.

`CC(C)=CCC[C@](C)(O)[C@H]1CC[C@]2(C)[C@@H]1[C@H](O)C[C@@H]1[C@@]3(C)CC[C@H](O)C(C)(C)[C@@H]3[C@@H](O)C[C@]12C` [(20S)-Protopanaxatriol] showed a remaining activity at 1.25 µM ([1]; Well no.=8387) of 96.6% and a remaining activity at 3.75 µM ([2]; Well no.=8387) of 91.4%.

Work on `CC(C)CCC[C@H](C)[C@H]1CC[C@H]2[C@@H]3CCC4=CC(=NO)CC[C@]4(C)[C@H]3CC[C@]12C` [(20S)-cholest-4-en-3-one oxime] yielded a remaining activity at 1.25 µM ([1]; Well no.=5966) of 94.3% and a remaining activity at 3.75 µM ([2]; Well no.=5966) of 96.1%.

For `CN1CCc2cc3c(cc2[C@H]1[C@@H]1OC(=O)c2c1ccc1c2OCO1)OCO3` [(+)-Bicuculline], the remaining activity at 1.25 µM ([1]; Well no.=369) was 103%, the remaining activity at 1.25 µM ([1]; Well no.=3679) was 99.7% and the remaining activity at 3.75 µM ([2]; Well no.=369) was 98.1%. The remaining activity at 3.75 µM ([2]; Well no.=3679) was 99.2%.

In the case of `COc1ccc2c(c1O)-c1c3c(cc4c1[C@H](C2)N(C)CC4)OCO3` [(+)-Bulbocapnine hydrochloride], the remaining activity at 1.25 µM ([1]; Well no.=494) was 102% and the remaining activity at 3.75 µM ([2]; Well no.=494) was 102%.

For `CC(C)(C)[C@]1(O)CCN2C[C@H]3c4ccccc4CCc4cccc(c43)[C@@H]2C1` [(+)-Butaclamol hydrochloride], the remaining activity at 1.25 µM ([1]; Well no.=732) was 98.3% and the remaining activity at 3.75 µM ([2]; Well no.=732) was 98.3%.

`Oc1cc(O)c2c(c1)O[C@H](c1ccc(O)c(O)c1)[C@@H](O)C2` [(+)-Catechin Hydrate] was tested, and the remaining activity at 1.25 µM ([1]; Well no.=283) was 98% and the remaining activity at 3.75 µM ([2]; Well no.=283) was 99.7%.

`CN1Cc2c(ccc3c2OCO3)[C@@H]2[C@H]1c1cc3c(cc1C[C@@H]2O)OCO3` [(+)-Chelidonine] gave a remaining activity at 1.25 µM ([1]; Well no.=3439) of 95.5% and a remaining activity at 3.75 µM ([2]; Well no.=3439) of 97.2%.

Compound `C=C[C@H]1CN2CC[C@H]1C[C@@H]2[C@@H](O)c1ccnc2ccccc12` [(+)-Cinchonine] has a remaining activity at 1.25 µM ([1]; Well no.=3198) of 109% and a remaining activity at 3.75 µM ([2]; Well no.=3198) of 107%.

Compound `C[C@@H]1[C@@H]2Cc3ccc(O)cc3[C@@]1(C)CCN2CC1CC1` [(+)-Cyclazocine] has a remaining activity at 1.25 µM ([1]; Well no.=583) of 72.1% and a remaining activity at 3.75 µM ([2]; Well no.=583) of 98.8%.

With `C=C1C[C@]23C[C@@]1(O)CC[C@H]2[C@@]12C=C[C@H](O)[C@@](C)(C(=O)O1)[C@H]2[C@@H]3C(=O)O` [(+)-Gibberellic acid] the remaining activity at 1.25 µM ([1]; Well no.=3212) was 103% and the remaining activity at 3.75 µM ([2]; Well no.=3212) was 105%.
